Results reported in patent publication US20110166030A1, “Prediction of response to docetaxel therapy based on the presence of TMPRSSG2:ERG fusion in circulating tumor cells” (priority 2009, published 2011).

What was measured:
[1] = system: metastatic prostate cancer; experiment: Response to therapy in metastatic androgen-independent prostate cancer patients (reduction in PSA levels); type: in vivo, human
From the text: Thus, disclosed herein is a method of expression profiling of gene of interest in CTCs using real time quantitative RT-PCR. Briefly, in a proof of concept, in total RNA isolated from circulating tumor cells of each of 40 metastatic prostate cancer patients gene expression profiles of 14 candidate genes were investigated by real time quantitative RT-PCR. […] Based on this application of RT-PCR based detection of the TMPRSS2-ERG fusion gene expression, patients are stratified for effective treatment with docetaxel chemotherapy, with an overall improvement in disease outcome and quality of life with very high specificity.
Briefly, the 40 subjects were recruited from the Cedars-Sinai Medical Center in Los Angeles. Appropriate IRB approvals were obtained prior to patient sample collection. The inclusion criteria consisted of: patient must be at least 18 years old and with clinical diagnosis of Stage IV (metastatic) prostate cancer; patients must provide written consent/authorization to participate in this study, no signs or symptoms of active infection, willing and able to comply with procedures required in this protocol.
All patients were receiving treatments at Cedars-Sinai Medical Center at Los Angeles and all have metastatic prostate cancers. […]

[2] = system: castration resistant prostate cancer (CRPC); experiment: CEC, CTC, ET-1 and TF levels during docetaxel treatment of CRPC patients; type: in vivo, human
Protocol: Blood samples were collected from 231 patients with CRPC by venesection into 2×10 mL CellSave tubes (Veridex, LLC, Raritan, N.J.) and 1×6 mL serum tube in a multi-center prospective study. One CellSave tube was used to determine the number of CTC for prediction of OS. Results on CTC levels measured in this group have been previously published. The second collected CellSave tube was used to determine CEC numbers.
In order to assess a homogenous group of patients with respect to systemic therapy, we selected all who were scheduled to receive docetaxel or a docetaxel containing regimen (n=162) from the 231 patients. Treatment was continued until progression or unacceptable toxicity. Main eligibility criteria included age ≧18 years, pathological diagnosis of adenocarcinoma of the prostate, first or later line of chemotherapy, serum testosterone <1.7 nmol/L ([…]), Eastern Cooperative Oncology Group (ECOG) performance status 0-2, pretreatment serum PSA≧5 ng/mL, PSA progression (rises above a reference value) despite androgen deprivation therapy, and ability to sign informed consent. This study was approved by the local Institutional Medical Ethical Review Boards and is in agreement with the Helsinki declaration of 2000. Written informed consent was obtained from all patients prior to participation.
CEC and CTC counts were determined prior to initiation of chemotherapy and after 2-5 weeks (first follow-up draw) and 6-8 weeks (second follow-up draw) of treatment. Serum concentrations of ET-1 and TF were also determined at these same time points.
The CellTracks® AutoPrep® and CellTracks Analyzer II® Systems (both Veridex, LLC, Raritan, N.J.) were used to count CTC and CEC. CTC were defined as intact cells positive for the nuclear stain 4′ 6-diamidinophenylindole (DAPI), the epithelial cell adhesion molecule (EpCAM), and for cytokeratins 8, 18 and 19 that also lacked expression of the panleukocyte marker CD45. CEC were identified as intact cells positive for DAPI, CD146 and CD105 that also lacked expression of CD45.
The technical details of both assays have been published previously. […]
Serum concentrations (pg/mL) of ET-1 and TF-1 were determined by ELISA. […] Absorbance was read at 450 nm using a Titertek 212 MS microplate reader (Titertek, Huntsville, Ala.). […]
Longitudinal biomarker data were analyzed using a random effects linear regression model using the maximum likelihood random effects estimator (the “xtreg, mle” command in STATA). […] To determine a cutoff value for survival analysis of CEC numbers and serum concentrations of ET-1 and TF, patient data were first stratified according percentiles (p0-p25; p25-p50, p50-p75, and p75-p100), in which either their baseline value or the change between baseline values and those determined at 2-5 weeks would fall. […]

In the case of `CC(=O)O[C@@]12CO[C@@H]1C[C@H](O)[C@@]1(C)C(=O)[C@H](O)C3=C(C)[C@@H](OC(=O)[C@H](O)[C@@H](NC(=O)OC(C)(C)C)c4ccccc4)C[C@@](O)([C@@H](OC(=O)c4ccccc4)[C@H]21)C3(C)C` [Docetaxel], the “Response to treatment, Number of Patients” value ([1]; 40 metastatic prostate cancer patients, Tax 14 patients, Tax + RAD 11 patients treated) is reported as 7, the “Patients with T1E4 or T2E4 fusion gene expression in CTCs who responded to the therapy” value ([1]; five fusion-positive patients received Docetaxel-based therapy (Docetaxel or Docetaxel plus RAD001)) is reported as 5 patients and the “Change in CTC numbers” value ([2]; after 2-5 weeks of treatment, cells/7.5 mL blood) is reported as “decreased significantly”. The “Change in serum TF” value ([2]; after 6-8 weeks of therapy vs baseline and first follow-up draw, ELISA) was “significant decrease”, the “Serum concentrations of ET-1 during treatment” value ([2]; baseline, 2-5 and 6-8 weeks, ELISA) was “remained constant” and the “Change in CEC numbers vs baseline” value ([2]; first follow-up draw, 2-5 weeks after initiation of docetaxel, cells/4.0 mL blood) was “significant increase”.
